Experimental data: patent EP0041644B1 (priority 1980, dated 1981)

Tests used:
[1] = tested on: L1210 Leukemia; assay: L1210 Leukemia - Test 1 (survival of tumor-bearing mice); format: in vivo; conditions: for Survivors Day 5(30): qd 1→9, in saline
[2] = tested on: L1210 Leukemia; assay: as above; format: in vivo
Excerpt: This evaluation of the ammonium salt finds the drug to be active against L1210 (ip) leukemia when administered ip one day post-implant of 10^6 L1210 cells (maximum T/C was 164%). […] The vehicle for the ammonium salt was water.

[3] = tested on: L-1210 Leukemia; assay: L-1210 Leukemia (Table IX); format: in vivo, mice
Protocol: The sodium and ammonium salts of the present invention were tested against transplantable mouse tumors as indicated below.

[4] = 6 mg/kg/day ip, d. 1 only, in saline
[5] = 8 mg/kg/day ip, d. 1 only, in saline
[6] = 10 mg/kg/day ip, d. 1 only, in saline
[7] = 0.5 mg/kg/day ip, qd 1→9, in H2O
[8] = 0.5 mg/kg/day ip, qd 1→9, in saline
[9] = 1 mg/kg/day ip, qd 1→9, in saline
[10] = 2 mg/kg/day ip, qd 1→9, in saline
[11] = 4 mg/kg/day ip, d. 1 only, in H2O
[12] = 4 mg/kg/day ip, d. 1 only, in saline
[13] = 6 mg/kg/day ip, d. 1 only, in H2O
[14] = 8 mg/kg/day ip, d. 1 only, in H2O
[15] = 10 mg/kg/day ip, d. 1 only, in H2O

Compound: N.N.[Cl][Pt][Cl] [Cis-DDP, cis-diammine dichloroplatinum (II)]
- Survivors Day 5(30) ([1]; 0.5 mg/kg/day ip): 6/6
- Survivors Day 5(30) ([1]; 2 mg/kg/day ip): 6/6
- Average Weight Change [1, 4]: −2.8
- Average Weight Change [1, 5]: −4.1
- Effect MST % T/C [1, 6]: 207 % T/C
- Average Weight Change [2, 7]: −3.8
- Effect MST % T/C [2, 7]: 143 % T/C
- MST Days [2, 7]: 10.0 days
- Survivors Day 5(30) [2, 7]: 6/6
- Average Weight Change [2, 8]: +1.5
- Effect MST % T/C [2, 8]: 100 % T/C
- MST Days [2, 8]: 7.0 days
- Average Weight Change ([2]; 1 mg/kg/day ip, qd 1→9, in H2O): −3.7
- Effect MST % T/C ([2]; 1 mg/kg/day ip, qd 1→9, in H2O): 114 % T/C
- MST Days ([2]; 1 mg/kg/day ip, qd 1→9, in H2O): 8.0 days
- Survivors Day 5(30) ([2]; 1 mg/kg/day ip, qd 1→9, in H2O): 6/6
- Average Weight Change [2, 9]: −0.9
- Effect MST % T/C [2, 9]: 150 % T/C
- MST Days [2, 9]: 10.5 days
- Survivors Day 5(30) [2, 9]: 6/6
- Average Weight Change ([2]; 2 mg/kg/day ip, qd 1→9, in H2O): −4.0
- Effect MST % T/C ([2]; 2 mg/kg/day ip, qd 1→9, in H2O): 86 % T/C
- MST Days ([2]; 2 mg/kg/day ip, qd 1→9, in H2O): 6.0 days
- Survivors Day 5(30) ([2]; 2 mg/kg/day ip, qd 1→9, in H2O): 4/6
- Average Weight Change [2, 10]: −3.3
- Effect MST % T/C [2, 10]: 250 % T/C
- MST Days [2, 10]: 17.5 days
- Average Weight Change [2, 11]: −5.9
- Effect MST % T/C [2, 11]: 100 % T/C
- MST Days [2, 11]: 7.0 days
- Survivors Day 5(30) [2, 11]: 6/6
- Average Weight Change [2, 12]: −0.7
- Effect MST % T/C [2, 12]: 164 % T/C
- MST Days [2, 12]: 11.5 days
- Survivors Day 5(30) [2, 12]: 6/6
- Average Weight Change [2, 13]: TOX
- Effect MST % T/C [2, 13]: TOX
- MST Days [2, 13]: TOX
- Survivors Day 5(30) [2, 13]: 1/6
- Effect MST % T/C [2, 4]: 186 % T/C
- MST Days [2, 4]: 13.0 days
- Survivors Day 5(30) [2, 4]: 6/6
- Average Weight Change [2, 14]: TOX
- Effect MST % T/C [2, 14]: TOX
- MST Days [2, 14]: TOX
- Survivors Day 5(30) [2, 14]: 4/6
- Effect MST % T/C [2, 5]: 193 % T/C
- MST Days [2, 5]: 13.5 days
- Survivors Day 5(30) [2, 5]: 6/6
- Average Weight Change [2, 15]: TOX
- Effect MST % T/C [2, 15]: TOX
- MST Days [2, 15]: TOX
- Survivors Day 5(30) [2, 15]: 1/6
- Average Weight Change [2, 6]: −3.6
- MST Days [2, 6]: 14.5 days
- Survivors Day 5(30) [2, 6]: 6/6
- Average Weight Change,g ([3]; 0.4 mg/kg/inj ip, qd 1→9): -0.6 g
- Effect MST % T/C ([3]; 0.4 mg/kg/inj ip, qd 1→9): 108 % T/C
- MST Days ([3]; 0.4 mg/kg/inj ip, qd 1→9): 7.0 days
- Survivors Day 5(45) ([3]; 0.4 mg/kg/inj ip, qd 1→9): 6/6
- Average Weight Change,g ([3]; 0.8 mg/kg/inj ip, qd 1→9): -2.1 g
- Effect MST % T/C ([3]; 0.8 mg/kg/inj ip, qd 1→9): 138 % T/C
- MST Days ([3]; 0.8 mg/kg/inj ip, qd 1→9): 9.0 days
- Survivors Day 5(45) ([3]; 0.8 mg/kg/inj ip, qd 1→9): 6/6
- Average Weight Change,g ([3]; 1.6 mg/kg/inj ip, qd 1→9): -2.9 g
- Effect MST % T/C ([3]; 1.6 mg/kg/inj ip, qd 1→9): 154 % T/C
- MST Days ([3]; 1.6 mg/kg/inj ip, qd 1→9): 10.0 days
- Survivors Day 5(45) ([3]; 1.6 mg/kg/inj ip, qd 1→9): 6/6
- Average Weight Change,g ([3]; 2 mg/kg/inj ip, Day 1): -0.7 g
- Effect MST % T/C ([3]; 2 mg/kg/inj ip, Day 1): 138 % T/C
